Like-named read-outs stand apart in the source and are kept apart here.
Tests used:
EAE = experiment: Multiple sclerosis model (EAE, C57BL/6+MOG35-55); type: in vivo, mice
Method: FIG. 21A and FIG. 21B show the targeting of glutamine metabolism in multiple sclerosis. Animals were immunized for EAE (C57BL/6+MOG35-55). Mice were treated with vehicle or 25 either q.d. from the day of immunization (day 0, left), or b.d. from the time of disease onset (EAE disease score≥1, right).

[1] = human microsomes
Neuromyelitis Optica = experiment: Neuromyelitis optica model (adoptive transfer of auto-reactive T cells); set-up: species or system mice; details: mouse, in vivo
Method: Auto-reactive T cells were adoptively transferred into mice treated with PBS or 25 and mean paralysis scores were measured.

4T1-Luc tumor cells = experiment: 4T1-Luc mammary tumor model: myeloid cells, TAM and fibrocytes by flow cytometry; type: in vivo, BALB/c mice; details: 1 mg/kg daily from day 7 to day 17
Method: 4T1-Luc tumor cells (0.1 million) were injected into the mammary fat pads of 8-week-old female BALB/c mice. Mice received vehicle (PBS) or 1 mg/kg 25 daily from day 7 to day 17. Anti-PD1 antibody (5 mg/Kg) was administered i.p. on day 5, 8, 12 and 17. Percentages of myeloid-derived suppressor cell (MDSC) from circulating blood were monitored on day 6, 9 and 17 by flow cytometry with CD11b and Ly6C/Ly6G. Granulocytic MDSC (G-MDSC): CD11b+ Ly6g+ Ly6c low Monocytic MDSC (Mo-MDSC): CD11b+ Ly6G-Ly6c Hi.
4T1-Luc tumor cells (0.2 million) were injected into the mammary fat pads of 8-week-old female BALB/c mice. Mice received vehicle (PBS) or 1 mg/kg compound 25 daily from day 7 to day 17. Anti-PD1 antibody (5 mg/Kg) was administered on day 5, 8, 12 and 17. Tumors were evaluated for tumor infiltrating cells on day 21. Cells were seeded on plates and golgi plug 200 ul were added to inhibit cytokine secretion for overnight (no additional stimulation). Tumor associated macrophages markers: Live/CD45+/CD11b+/F4-80+/CD8− for flow cytometry analysis. Macrophages derived from tumor. The cells were incubated with Golgi plug o.n. w/o stim. TAM: Live/CD45+/CD11b+/F4-80+/CD8−.
4T1-Luc tumor cells (0.1 million) were injected into the mammary fat pads of 8-week-old female BALB/c mice. Mice received vehicle (PBS) or 1 mg/kg 25 daily from day 7 to day 17. Anti-PD1 antibody (5 mg/Kg) was administered on day 5, 8, 12 and 17. Tumors were evaluated for tumor infiltrating cells on day 21. Fibrocytes markers: CollagenI+CD11b+CD45+ live were used for flow cytometry analysis.

[2] = pig microsomes
mouse model of asthma = experiment: Mouse model of asthma (House Dust Mite antigen sensitization and rechallenge); type: in vivo, mice; details: treated upon intratracheal rechallenge
Method: Mice were sensitized to House Dust Mite antigen (HDM) in the absence of drug. Upon intratracheal rechallenge the mice were treated with vehicle or 25.

CCOC(=O)[C@H](CCC(=O)C=[N+]=[N-])NC(=O)[C@@H](N)CC(C)C [Compound 25]
EAE disease, treatment (EAE; b.d. from the time of disease onset (EAE disease score≥1)): unexpected effectiveness | EAE disease, prevention (EAE; q.d. from the day of immunization (day 0)): unexpected effectiveness | liver microsomal stability [1]: moderate-high stability | mean paralysis scores (Neuromyelitis Optica): unexpected effectiveness | CD11b+ cells and G-MDSCs in circulating blood (4T1-Luc tumor cells; anti-PD1 antibody also given): reduced CD11b+ cells and G-MDSCs | TNF alpha in tumor associated macrophages (4T1-Luc tumor cells; tumors evaluated day 21): increased TNF alpha | tumor infiltrating fibrocytes (4T1-Luc tumor cells; tumors evaluated day 21): reduced fibrocytes | liver microsomal stability [2]: moderate-high stability | levels of HDM specific IgE (mouse model of asthma): reduced | lung pathology (mouse model of asthma): inhibited pathology | recruitment/generation of Th2 cells (mouse model of asthma): inhibited
